Measurements published in patent publication US10287275B2, “16-member triamilide derivatives and uses thereof” (VICTOR PHARMA CO., LTD. ZHENJIANG, priority 2015, dated 2019).
Converted amounts (≈) assume the structure as drawn.

Key:
Format in all cases: cell-based
[1] = system: Streptococcus pneumoniae 49619 (QC strain); test: Antibacterial MIC, agar-dilution or broth-dilution microtiter test; conditions: Strain M: Streptococcus pneumoniae 49619 (QC strain)
Procedure: (§1) The MIC's in Table I and Table II were determined by standard agar-dilution assays or broth-dilution microtiter test.

[2] = system: Pasteurella 8229; test: as above; conditions: Strain D: Pasteurella 8229
Procedure: as §1

[3] = system: Pasteurella 8217; test: as above; conditions: Strain C: Pasteurella 8217
Procedure: as §1

[4] = system: Klebsiella pneumoniae 3699; test: as above; conditions: Strain K: Klebsiella pneumoniae 3699
Procedure: as §1

[5] = system: Staphylococcus aureus 5-1; test: as above; conditions: 51; Strain G: Staphylococcus aureus 5-1
Procedure: as §1

[6] = system: Klebsiella pneumoniae 3753; test: as above; conditions: Strain J: Klebsiella pneumoniae 3753
Procedure: as §1

[7] = system: Actinobacillus pleuropneumoniae serotype 7; test: as above; conditions: Strain B: Actinobacillus pleuropneumoniae serotype 7
Procedure: as §1

[8] = system: salmonella LD4-8; test: as above; conditions: LD48; Strain I: salmonella LD4-8
Procedure: as §1

[9] = system: Staphylococcus aureus 29213 (QC strain); test: as above; conditions: Strain H: Staphylococcus aureus 29213 (QC strain)
Procedure: as §1

[10] = system: Streptococcus pneumoniae 2349; test: as above; conditions: Strain L: Streptococcus pneumoniae 2349
Procedure: as §1

[11] = system: Escherichia coli 25922 (QC strain); test: as above; conditions: Strain F: Escherichia coli 25922 (QC strain)
Procedure: as §1

[12] = system: Escherichia coli IN-F6-7; test: as above; conditions: INF67; Strain E: Escherichia coli IN-F6-7
Procedure: as §1

[13] = system: Actinobacillus pleuropneumoniae serotype 1; test: as above; conditions: Strain A: Actinobacillus pleuropneumoniae serotype 1
Procedure: as §1

[14] = system: M. gallisepticum BG44T; test: Mycoplasma susceptibility testing (MIC); conditions: Mycoplasmoides gallisepticum
Procedure: as §1

[15] = system: M. gallisepticum S6; test: Mycoplasma susceptibility testing (MIC); conditions: Mycoplasmoides gallisepticum
Procedure: as §1

[16] = system: M. hyorinis BTS-7; test: Mycoplasma susceptibility testing (MIC)
Procedure: as §1

Compound	MIC [1] [µg/mL]	MIC [2] [µg/mL]	MIC [3] [µg/mL]	MIC [4] [µg/mL]	MIC [5] [µg/mL]	MIC [6] [µg/mL]	MIC [7] [µg/mL]	MIC [8] [µg/mL]	MIC [9] [µg/mL]	MIC [10] [µg/mL]	MIC [11] [µg/mL]	MIC [12] [µg/mL]	MIC [13] [µg/mL]	MIC [14] [µg/mL]	MIC [15] [µg/mL]	MIC [16] [µg/mL]
CC[C@H]1OC(=O)C[C@@H](O)[C@H](C)[C@@H](O[C@@H]2O[C@H](C)[C@@H](O[C@H]3C[C@@](C)(O)[C@@H](O)[C@H](C)O3)[C@H](N(C)C)[C@H]2O)[C@@H](CC=O)C[C@@H](C)C(=O)/C=C/C(C)=C/[C@@H]1CO[C@@H]1O[C@H](C)[C@@H](O)[C@@H](OC)[C@H]1OC [Tylosin, reference compound]	2 (≈ 2.18 µM)	32 (≈ 34.9 µM)	32 (≈ 34.9 µM)	> 256	> 256	> 256	8 (≈ 8.73 µM)	> 256	2 (≈ 2.18 µM)	< 0.12	256 (≈ 279 µM)	256 (≈ 279 µM)	16 (≈ 17.5 µM)	< 0.12	< 0.12	1.95 (≈ 2.13 µM)
CC[C@H]1OC(=O)C[C@@H](O)[C@H](C)[C@@H](O[C@@H]2O[C@H](C)[C@@H](O)[C@H](N(C)C)[C@H]2O)[C@@H](CCN2CCCCC2)C[C@@H](C)C(=O)/C=C/C(C)=C/[C@@H]1CN1CCCCC1 [Zuprevo, reference compound]	256 (≈ 349 µM)	1 (≈ 1.36 µM)	1 (≈ 1.36 µM)	> 256	> 256	32 (≈ 43.6 µM)	64 (≈ 87.2 µM)	8 (≈ 10.9 µM)	256 (≈ 349 µM)	0.5 (≈ 0.681 µM)	4 (≈ 5.45 µM)	4 (≈ 5.45 µM)	64 (≈ 87.2 µM)	< 0.12	< 0.12	1.95 (≈ 2.66 µM)
